Measurements from PubChem BioAssay (NCI).
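Each compound was tested at five concentrations against cells in 96-well plates for 48 hours. GI50 is the concentration that inhibits growth by half. TGI: total growth inhibition.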

What was measured:
Assay in all cases: NCI-60 cell line screen, 48 h
MOLT-4 leukemia = test system: MOLT-4 leukemia
DU-145 prostate = test system: DU-145 prostate
UACC-257 melanoma = test system: UACC-257 melanoma
SR leukemia = test system: SR leukemia
SNB-19 CNS = test system: SNB-19 CNS
BT-549 breast = test system: BT-549 breast
MDA-MB-435 = test system: MDA-MB-435
OVCAR-4 ovarian = test system: OVCAR-4 ovarian

`Cc1ncc(-c2ccnc(Nc3ccc(S(C)(=O)=O)cc3)n2)n1C(C)C` was tested, and the GI50 (MOLT-4 leukemia) was 1.03 µM, the TGI (MOLT-4 leukemia) was 4.99 µM and the GI50 (DU-145 prostate) was 1.32 µM. The TGI (DU-145 prostate) was over 10 µM, the GI50 (UACC-257 melanoma) was 1.94 µM and the TGI (UACC-257 melanoma) was 5.62 µM. The GI50 (SR leukemia) was 0.222 µM, the TGI (SR leukemia) was 2.94 µM and the GI50 (SNB-19 CNS) was 2.23 µM. It also gave a TGI (SNB-19 CNS) of over 10 µM, a GI50 (BT-549 breast) of 0.925 µM and a TGI (BT-549 breast) of 7.22 µM. For the same compound, the GI50 (MDA-MB-435) was 1.41 µM, the TGI (MDA-MB-435) was over 5.6 µM and the GI50 (OVCAR-4 ovarian) was 1.87 µM. It also gave a TGI (OVCAR-4 ovarian) of over 8.73 µM.

With `Oc1ccccc1C=Nc1ccccc1N=Cc1ccccc1O.[Cu+2]` the GI50 (MOLT-4 leukemia) was 3.84 µM, the TGI (MOLT-4 leukemia) was over 100 µM and the GI50 (DU-145 prostate) was 5.13 µM. It also gave a TGI (DU-145 prostate) of 18.5 µM, a GI50 (UACC-257 melanoma) of 4.08 µM and a TGI (UACC-257 melanoma) of 15.6 µM. For the same compound, the GI50 (SR leukemia) was 13.2 µM, the TGI (SR leukemia) was over 100 µM and the GI50 (SNB-19 CNS) was 13 µM. The TGI (SNB-19 CNS) was 26.3 µM, the GI50 (BT-549 breast) was 3.24 µM and the TGI (BT-549 breast) was 11.9 µM. For the same compound, the GI50 (MDA-MB-435) was 4.38 µM, the TGI (MDA-MB-435) was 17 µM and the GI50 (OVCAR-4 ovarian) was 5.79 µM. It also gave a TGI (OVCAR-4 ovarian) of 19 µM.

Work on `NCCN1C(=O)c2ccccc2C1(O)c1ccc(Cl)cc1` (stereo unspecified) yielded a TGI (MOLT-4 leukemia) of 38.8 µM, a TGI (DU-145 prostate) of over 100 µM and a TGI (UACC-257 melanoma) of 31.8 µM. For the same compound, the TGI (SR leukemia) was 36.6 µM, the TGI (SNB-19 CNS) was 61 µM and the TGI (BT-549 breast) was over 100 µM. For the same compound, the TGI (MDA-MB-435) was 28.6 µM and the TGI (OVCAR-4 ovarian) was over 100 µM.

`O=C(Nc1cccc(-n2cc(-c3ccncc3)c(-c3ccc(O)c(Cl)c3)n2)c1)c1ccc(Cl)c(Cl)c1` gave a GI50 (MOLT-4 leukemia) of 7.19 µM, a TGI (MOLT-4 leukemia) of over 100 µM and a GI50 (DU-145 prostate) of 20.9 µM. The TGI (DU-145 prostate) was over 100 µM, the GI50 (UACC-257 melanoma) was 4.12 µM and the TGI (UACC-257 melanoma) was 31.3 µM. For the same compound, the GI50 (SR leukemia) was 3.57 µM, the TGI (SR leukemia) was over 100 µM and the GI50 (SNB-19 CNS) was 29.7 µM. It also gave a TGI (SNB-19 CNS) of over 100 µM, a GI50 (BT-549 breast) of 10.4 µM and a TGI (BT-549 breast) of over 100 µM. The GI50 (MDA-MB-435) was 6.06 µM, the TGI (MDA-MB-435) was 46.2 µM and the GI50 (OVCAR-4 ovarian) was 9.9 µM. The TGI (OVCAR-4 ovarian) was over 100 µM.

Compound `COC(=O)[C@@H](OC)[C@@H]1Cc2cc3cc(OC4CC(OC5CC(O)C(O)C(C)O5)C(O)C(C)O4)c(C)c(O)c3c(O)c2C(=O)[C@H]1OC1CC(OC2CC(OC3CC(C)(O)C(O)C(C)O3)C(O)C(C)O2)C(O)C(C)O1` (stereo partly specified) has a GI50 (MOLT-4 leukemia) of 0.0453 µM, a GI50 (DU-145 prostate) of 0.0433 µM and a TGI (DU-145 prostate) of over 16.5 µM. For the same compound, the GI50 (UACC-257 melanoma) was 0.0507 µM, the TGI (UACC-257 melanoma) was 0.497 µM and the GI50 (SR leukemia) was 0.0103 µM. It also gave a TGI (SR leukemia) of over 16.5 µM, a GI50 (SNB-19 CNS) of 0.0449 µM and a TGI (SNB-19 CNS) of over 8.89 µM. It also gave a GI50 (BT-549 breast) of 0.0186 µM, a TGI (BT-549 breast) of 0.0974 µM and a GI50 (MDA-MB-435) of 0.0274 µM. It also gave a TGI (MDA-MB-435) of 0.0605 µM, a GI50 (OVCAR-4 ovarian) of 0.0413 µM and a TGI (OVCAR-4 ovarian) of 0.553 µM.

`CNC(=O)c1cc2c(Oc3ccc(NC(=S)NC(=O)Cc4ccccc4)cc3F)ccnc2cc1OC` showed a GI50 (MOLT-4 leukemia) of 3.47 µM, a TGI (MOLT-4 leukemia) of over 100 µM and a GI50 (DU-145 prostate) of over 31.4 µM. It also gave a TGI (DU-145 prostate) of over 100 µM, a GI50 (UACC-257 melanoma) of 9.5 µM and a TGI (UACC-257 melanoma) of over 100 µM. The GI50 (SR leukemia) was 5.78 µM, the TGI (SR leukemia) was over 100 µM and the GI50 (SNB-19 CNS) was over 100 µM. It also gave a TGI (SNB-19 CNS) of over 100 µM, a GI50 (BT-549 breast) of 2.91 µM and a TGI (BT-549 breast) of over 28.7 µM. The GI50 (MDA-MB-435) was over 27.6 µM, the TGI (MDA-MB-435) was over 100 µM and the GI50 (OVCAR-4 ovarian) was 5.44 µM. For the same compound, the TGI (OVCAR-4 ovarian) was over 100 µM.

Compound `Cc1ccc(NC(=O)/C(=N\NC(N)=O)c2c(O)c3ccccc3[nH]c2=O)cc1` has a TGI (MOLT-4 leukemia) of over 100 µM, a TGI (DU-145 prostate) of over 100 µM and a TGI (UACC-257 melanoma) of over 100 µM. It also gave a TGI (SR leukemia) of over 100 µM, a TGI (SNB-19 CNS) of over 100 µM and a TGI (BT-549 breast) of over 100 µM. The TGI (MDA-MB-435) was over 100 µM and the TGI (OVCAR-4 ovarian) was over 100 µM.

Compound `CN1CCN(c2ccc(C(=O)Nc3cccc(C#Cc4cccc5[nH]nc(N)c45)c3)cc2C(F)(F)F)CC1` has a GI50 (MOLT-4 leukemia) of 0.645 µM, a TGI (MOLT-4 leukemia) of 1.57 µM and a GI50 (DU-145 prostate) of 1.08 µM. For the same compound, the TGI (DU-145 prostate) was 3.2 µM, the GI50 (UACC-257 melanoma) was 1.93 µM and the TGI (UACC-257 melanoma) was 4.53 µM. The GI50 (SR leukemia) was 1.06 µM, the TGI (SR leukemia) was 5.34 µM and the GI50 (SNB-19 CNS) was 1.68 µM. For the same compound, the TGI (SNB-19 CNS) was 4.92 µM, the GI50 (BT-549 breast) was 3.36 µM and the TGI (BT-549 breast) was 7.68 µM. It also gave a GI50 (MDA-MB-435) of 0.61 µM, a TGI (MDA-MB-435) of 1.19 µM and a GI50 (OVCAR-4 ovarian) of 0.962 µM. It also gave a TGI (OVCAR-4 ovarian) of 4.51 µM.
